Reference: patent US8865222B2, “Beta-casein assemblies for enrichment of food and beverages and methods of preparation thereof” (Technion Research and Development Foundation Ltd., priority 2008, dated 2014)

Experiments:
Assay type in all cases: physicochemical
[1] = Turbidity (solution absorbance at 600 nm); conditions: vitamin D 82.5 μg/ml, in the absence of beta-casein, pH 7.0 and 2.5
[2] = Vitamin D stability in aqueous solution, n-hexane extraction and Reversed Phase HPLC; conditions: pH 7 and pH 2.5, room temperature
Experimental: We further tested the stability of vitamin D:beta-casein solutions in both acidic and neutral pH environments. The solutions prepared were left for a week at room temperature and the sampling was made once a day (in the first three days of the experiment) and once every two days (toward the end of the experiment). Vitamin D was extracted by n-hexane from each sample and its amount was analyzed using Reversed Phase HPLC. The amount of the vitamin left was compared to the amount extracted at time 0. The experiment was performed at two different pH values (pH 7 and pH 2.5).

[3] = Visual comparison of vitamin D solubilization, clarity and precipitation with and without beta-casein

turbidity [1]: sudden increase in turbidity value | vitamin D stability (amount left versus time 0) ([2]; in the presence of beta-casein, one week): degradation process is much slower | precipitation ([3]; PBS, in the absence of beta-casein, after a week): not observed | precipitation ([3]; PBS, in the presence of beta-casein, after a week): not observed | aggregation out of solution ([3]; lactic acid buffer pH 2.5, no beta-casein, after a week): white precipitation | precipitation ([3]; lactic acid buffer pH 2.5 with beta-casein 0.5% wt, molar ratio 2:1, after a week): not observed
SMILES: C=C1CC[C@H](O)C/C1=C/C=C1\CCC[C@]2(C)[C@@H]([C@H](C)/C=C/[C@H](C)C(C)C)CC[C@@H]12 [vitamin D, ergocalciferol]
vitamin D stability (amount left versus time 0) ([2]; vitamin D alone, aqueous solution): degrades rapidly leaving almost no trace after only two days
